# From patent US10035792B2, “Resorcinol derivative as HSP90 inhibitor” (priority 2015, dated 2018)
# Experiments:
# [1] = tested on: human lung cancer cell line A549; test: Tumor cell growth inhibition, SRB staining, A549; format: cell-based; conditions: A549, 72 h
# Experimental: The growth inhibition assay of tumor cells was detected by sulforhodamine B (SRB) staining method. The specific steps were as follows: inoculating human colon cancer cell line HCT116 and human lung cancer cell line A549 (purchased from American Type Culture Collection, ATCC) at the logarithmic growth phase into a 96-well micro culture plate at an appropriate concentration of 4000 cells/well, 100 μL for each well; after culturing overnight, adding with the compound at different concentrations (100, 10, 1, 0.1, 0.01 μM) to react for 72 h, wherein triplicate wells were set up for each concentration, and solvent control wells with the corresponding concentration and zero wells without cells were also set up. After the completion of the reaction, the culture medium was removed from the adherent cells, the later was added with 10% (w/v) trichloroacetic acid (100 μL/well) at 4° C. to fix for 1 h, and then washed five times with distilled water. After drying at room temperature, 100 μL of SRB solution (4 mg/mL, dissolved in 1% glacial acetic acid) was added into each well, followed by incubation and staining for 15 min at room temperature. The uncombined SRB was removed by washing five times with 1% glacial acetic acid. After drying at room temperature, 100 μL of 10 mM Tris solution was added into each well, and the optical density (OD) at 515 nm was measured by a […] microplate reader. The inhibition rate of the drug to tumor cell growth was calculated according to the following equation: Inhibition rate (%)=(OD of control well-OD of drug well)/OD of control well×100%. The experiment was repeated twice.
# HSP90α = HSP90α (Homo sapiens (Human), UniProt P07900); test: Fluorescence polarization (FP) HSP90-alpha target binding assay; conditions: fluorescence polarization; read-out: Target binding ability HSP90α FP IC50
# From the text: In the present invention, the method of fluorescence polarization (FP) was used to establish the screening platform for HSP90-alpha inhibitors. The principle based on is to calculate fluorescence polarization values in horizontal and vertical directions by detecting molecular weight changes before and after interaction of fluorescent labeled small molecules with other molecules, in use for correlation analysis. If binding equilibria between the fluorescent labeled small molecule and the macromolecule is established, it moves slowly when excited, and the fluorescence polarization values measured will increase. If the fluorescent labeled small molecule binding to the macromolecule is replaced with other ligands, its rotational or inversional speed in free state will become faster, the emitted light would be depolarized with respect to the exciting light plane, and thus the polarized light value measured will decrease, so as to calculate the polarization value of the sample (the unit of polarization value is mP).
# The fluorescent labeled small molecule used in the present invention was VER-00051001 (synthesized by reference to the synthetic method described in JMC, 2008, 51, 196-218). The reaction was carried out in a 384-well black plate, using the reaction hydrophobic protein HFB buffer: 100 mM Tris.Cl pH 7.4, 20 mM KCl, 6 mM MgCl2, 5 μg/mL BSA, 25 nM full-length Hsp90U, 10 nM VER-51001. The volume of the reaction system was […], containing 5 nM GM-BODIPY (geldanamycin), 30 nM HSP90 and the test small molecular compound or DMSO (dimethyl sulfoxide), wherein the DMSO content was 2% o. Additional two group wells were established, wherein the wells only added with HFB buffer were used as blank controls, and the wells further added with 5 nM GM-BODIPY were used as negative controls. The reaction was carried out at 4° C. for 12-16 hours. The mP value was measured by Biotek microplate reader at 485 nm of excitation wavelength and 535 nm of emission wavelength. The inhibition rate was calculated using the following equation: (Compound-free mP−Compound mP)/(Compound-free mP−negative control mP)×100%
SMILES,EC50 [1],IC50 (HSP90α)
"CCNC(=O)c1onc(-c2cc(C(C)C)c(O)cc2O)c1-c1ccc2c(c1)CCN(C)CC2 [Example 27, 3-(2,4-dihydroxyl-5-isopropylphenyl)-N-ethyl-4-(3-methyl-2,3,4,5-tetrahydro-1H-benzo[d]azepin-7-yl)isoxazole-5-carboxamide]",< 20 nM,< 20 nM
"CCNC(=O)c1onc(-c2cc(C(C)C)c(O)cc2O)c1-c1ccc2c(c1)CCNCC2 [Example 28, 3-(2,4-dihydroxyl-5-isopropylphenyl)-N-ethyl-4-(2,3,4,5-tetrahydro-1H-3-benzazepin-7-yl) isoxazole-5-carboxamide]",< 20 nM,< 20 nM
"CCNC(=O)c1noc(-c2cc(C)c(O)cc2O)c1-c1ccc2c(c1)CCN(C)C2 [Example 32, 5-(2,4-dihydroxyl-5-methylphenyl)-N-ethyl-4-(2-methyl-1,2,3,4-tetrahydroisoquinolin-6-yl)isoxazole-3-carboxamide]",> 100 nM,< 20 nM
"CCNC(=O)c1noc(-c2cc(CC)c(O)cc2O)c1-c1ccc2c(c1)CCN(C)C2 [Example 34, 5-(5-ethyl-2,4-dihydroxyl-phenyl)-N-ethyl-4-(2-methyl-1,2,3,4-tetrahydroisoquinolin-6-yl)isoxazole-3-carboxamide]",20 to 100 nM,< 20 nM
"CCNC(=O)c1noc(-c2cc(C3CC3)c(O)cc2O)c1-c1ccc2c(c1)CCN(C)C2 [Example 35, 5-(5-cyclopropyl-2,4-dihydroxyl-phenyl)-N-ethyl-4-(2-methyl-1,2,3,4-tetrahydroisoquinolin-6-yl)isoxazole-3-carboxamide]",20 to 100 nM,< 20 nM
"CC(C)c1cc(-c2onc(C(=O)NCC(F)(F)F)c2-c2ccc3c(c2)CCN(C)C3)c(O)cc1O [Example 39, 5-(2,4-dihydroxyl-5-isopropylphenyl)-N-(2,2,2-trifluoroethyl)-4-(2-methyl-1,2,3,4-tetrahydroisoquinolin-6-yl)isoxazole-3-carboxamide]",20 to 100 nM,20 to 100 nM
"COCCNC(=O)c1noc(-c2cc(C(C)C)c(O)cc2O)c1-c1ccc2c(c1)CCN(C)C2 [Example 41, 5-(2,4-dihydroxyl-5-isopropylphenyl)-N-(2-methoxyethyl)-4-(2-methyl-1,2,3,4-tetrahydroisoquinolin-6-yl)isoxazole-3-carboxamide]",20 to 100 nM,< 20 nM
"CCNC(=O)c1noc(-c2cc(C(C)C)c(O)cc2O)c1-c1ccc2c(c1)CCN(CCOC)C2 [Example 45, 5-(2,4-dihydroxyl-5-isopropylphenyl)-N-ethyl-4-(2-(2-methoxyethyl)-1,2,3,4-tetrahydroisoquinolin-6-yl)isoxazole-3-carboxamide]",20 to 100 nM,< 20 nM
"CCNC(=O)c1noc(-c2cc(C(C)C)c(O)cc2O)c1-c1ccc2c(c1)CCN(CCF)C2 [Example 46, 5-(2,4-dihydroxyl-5-isopropylphenyl)-N-ethyl-4-(2-(2-fluoroethyl)-1,2,3,4-tetrahydroisoquinolin-6-yl)isoxazole-3-carboxamide]",< 20 nM,20 to 100 nM

# Now from value to compound:
EC50 [1],IC50 (HSP90α),SMILES
20 to 100 nM,< 20 nM,"CCNC(=O)c1onc(-c2cc(C(C)C)c(O)cc2O)c1-c1ccc2cnccc2c1 [Example 29, 3-(2,4-dihydroxyl-5-isopropylphenyl)-N-ethyl-4-(isoquinolin-6-yl)isoxazole-5-carboxamide]"
> 100 nM,20 to 100 nM,"CCNC(=O)c1noc(-c2cc(Br)c(O)cc2O)c1-c1ccc2c(c1)CCN(C)C2 [Example 30, 5-(2,4-dihydroxyl-5-bromo-phenyl)-N-ethyl-4-(2-methyl-1,2,3,4-tetrahydroisoquinolin-6-yl)isoxazole-3-carboxamide]"
> 100 nM,20 to 100 nM,"CCNC(=O)c1noc(-c2cc(Cl)c(O)cc2O)c1-c1ccc2c(c1)CCN(C)C2 [Example 31, 5-(2,4-dihydroxyl-5-chloro-phenyl)-N-ethyl-4-(2-methyl-1,2,3,4-tetrahydroisoquinolin-6-yl)isoxazole-3-carboxamide]"
> 100 nM,20 to 100 nM,"CCNC(=O)c1noc(-c2cc(CC(C)C)c(O)cc2O)c1-c1ccc2c(c1)CCN(C)C2 [Example 33, 5-(5-isobutyl-2,4-dihydroxyl-phenyl)-N-ethyl-4-(2-methyl-1,2,3,4-tetrahydroisoquinolin-6-yl)isoxazole-3-carboxamide]"
< 20 nM,< 20 nM,"CNC(=O)c1noc(-c2cc(C(C)C)c(O)cc2O)c1-c1ccc2c(c1)CCN(C)C2 [Example 36, 5-(2,4-dihydroxyl-5-isopropylphenyl)-N-methyl-4-(2-methyl-1,2,3,4-tetrahydroisoquinolin-6-yl)isoxazole-3-carboxamide]"
20 to 100 nM,20 to 100 nM,"CCCNC(=O)c1noc(-c2cc(C(C)C)c(O)cc2O)c1-c1ccc2c(c1)CCN(C)C2 [Example 37, 5-(2,4-dihydroxyl-5-isopropylphenyl)-N-propyl-4-(2-methyl-1,2,3,4-tetrahydroisoquinolin-6-yl)isoxazole-3-carboxamide]"
20 to 100 nM,20 to 100 nM,"CC(C)NC(=O)c1noc(-c2cc(C(C)C)c(O)cc2O)c1-c1ccc2c(c1)CCN(C)C2 [Example 38, 5-(2,4-dihydroxyl-5-isopropylphenyl)-N-isopropyl-4-(2-methyl-1,2,3,4-tetrahydroisoquinolin-6-yl)isoxazole-3-carboxamide]"
< 20 nM,< 20 nM,"CC(C)c1cc(-c2onc(C(=O)NCCF)c2-c2ccc3c(c2)CCN(C)C3)c(O)cc1O [Example 40, 5-(2,4-dihydroxyl-5-isopropylphenyl)-N-(2-fluoroethyl)-4-(2-methyl-1,2,3,4-tetrahydroisoquinolin-6-yl)isoxazole-3-carboxamide]"
20 to 100 nM,20 to 100 nM,"COCCCNC(=O)c1noc(-c2cc(C(C)C)c(O)cc2O)c1-c1ccc2c(c1)CCN(C)C2 [Example 42, 5-(2,4-dihydroxyl-5-isopropylphenyl)-N-(3-methoxypropyl)-4-(2-methyl-1,2,3,4-tetrahydroisoquinolin-6-yl)isoxazole-3-carboxamide]"
> 100 nM,20 to 100 nM,"CC(C)c1cc(-c2onc(C(=O)NCCN(C)C)c2-c2ccc3c(c2)CCN(C)C3)c(O)cc1O [Example 43, 5-(2,4-dihydroxyl-5-isopropylphenyl)-N-[2-(dimethylamino)ethyl]-4-(2-methyl-1,2,3,4-tetrahydroisoquinolin-6-yl)isoxazole-3-carboxamide]"
20 to 100 nM,< 20 nM,"CCNC(=O)c1noc(-c2cc(C(C)C)c(O)cc2O)c1-c1ccc2c(c1)CCN(CCO)C2 [Example 44, 5-(2,4-dihydroxyl-5-isopropylphenyl)-N-ethyl-4-(2-(2-hydroxyethyl)-1,2,3,4-tetrahydroisoquinolin-6-yl)isoxazole-3-carboxamide]"
20 to 100 nM,20 to 100 nM,"CCNC(=O)c1noc(-c2cc(C(C)C)c(O)cc2O)c1-c1ccc2c(c1)CCN(CCCOC)C2 [Example 47, 5-(2,4-dihydroxyl-5-isopropylphenyl)-N-ethyl-4-(2-(3-methoxypropyl)-1,2,3,4-tetrahydroisoquinolin-6-yl)isoxazole-3-carboxamide]"
